The record followed here is patent US12655116B2, “Substituted isophthalic acid diamides” (Bayer Aktiengesellschaft, priority 2020, dated 2026).

The subject of assay [1] is ABUTH. Nature of the assay: Pre-emergence herbicidal action against ABUTH. The assay is classed as in vivo, Abutilon theophrasti. The note with it: Abutilon theophrasti, 504 h; for pest or weed control at 80 g/ha: scored visually after 3 weeks vs untreated controls (100% = plants have died, 0% = like control plants). In outline: (§1)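 Sandy loam pots, seeds covered with soil, then surface-treated with WP or EC formulations at 600–800 l/ha water plus 0.2% wetting agent. Greenhouse, 3 weeks. Percent damage vs untreated controls.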

The subject of assay [2] is VIOTR. Description: Post-emergence herbicidal action against VIOTR. The assay is classed as in vivo, Viola tricolor. The note with it: Viola tricolor, 504 h, 20 g/ha. In a few lines: (§2)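 Herbicidal action is a visual percentage rating (0% = as untreated control, 100% = plants dead) made roughly 3 weeks after treatment. Plants were grown in sandy loam in the greenhouse and treated at the one-leaf stage, 2 to 3 weeks post-sowing. Treatment was a foliar spray of wettable-powder or emulsion-concentrate formulations at 600 to 800 l/ha water plus 0.2% wetting agent.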

In assay [3] the test system is LOLRI. Description: Pre-emergence herbicidal action against LOLRI. The assay is classed as in vivo, Lolium rigidum. The settings on record: Lolium rigidum, 504 h, 80 g/ha. In outline: as §1
Assay [4] concerns SETVI. Description: Post-emergence herbicidal action against SETVI. The note with it: Setaria viridis, 504 h; for pest or weed control at 5 g/ha: dosage 5 g/ha; for pest or weed control at 20 g/ha: dosage 20 g/ha. It is filed as in vivo, Setaria viridis. In a few lines:
as §2

The test system of assay [5] is ABUTH. Nature of the assay: Post-emergence herbicidal action against ABUTH. The note with it: Abutilon theophrasti, 504 h, visual assessment about 3 weeks after treatment vs untreated controls; for pest or weed control at 20 g/ha: dosage 20 g/ha. The assay is classed as in vivo, Abutilon theophrasti. In outline:
as §2

Assay [6] deals with SETVI. Description: Pre-emergence herbicidal action against SETVI. It is filed as in vivo, Setaria viridis. The settings on record: Setaria viridis, 504 h, dosage 80 g/ha. In outline:
as §1

Assay [7] deals with ALOMY. Nature of the assay: Pre-emergence herbicidal action against ALOMY. It is filed as in vivo, Alopecurus myosuroides. The note with it: Alopecurus myosuroides, 504 h, pre-emergence; for pest or weed control at 80 g/ha: scored visually after 3 weeks vs untreated controls (100% = plants have died, 0% = like control plants); for pest or weed control at 20 g/ha: scored visually after 3 weeks, 100% = plants have died, 0% = like control plants. In a few lines: as §1

Assay [8] concerns MATIN. Description: Pre-emergence herbicidal action against MATIN. It is filed as in vivo, Matricaria inodora. The note with it: Tripleurospermum inodorum, 504 h; for pest or weed control at 20 g/ha: dosage 20 g/ha; for pest or weed control at 80 g/ha: dosage 80 g/ha. In a few lines:
as §1

In assay [9] the test system is POLCO. Nature of the assay: Pre-emergence herbicidal action against POLCO. It is filed as in vivo, Polygonum convolvulus. The note with it: Fallopia convolvulus, 504 h, dosage 80 g/ha. In outline: as §1
Assay [10] relates to AVEFA. Description: Pre-emergence herbicidal action against AVEFA. The note with it: Avena fatua, 504 h; 80 g/ha, pre-emergence. The assay is classed as in vivo, Avena fatua. In a few lines: as §1
In assay [11] the test system is ALOMY. Nature of the assay: Post-emergence herbicidal action against ALOMY. The assay is classed as in vivo, Alopecurus myosuroides. The note with it: Alopecurus myosuroides, 504 h, visual assessment about 3 weeks after treatment vs untreated controls; for pest or weed control at 5 g/ha: dosage 5 g/ha; for pest or weed control at 20 g/ha: dosage 20 g/ha. In outline: as §2

In assay [12] the test system is ECHCG. Description: Pre-emergence herbicidal action against ECHCG. It is filed as in vivo, Echinochloa crus-galli. The settings on record: Echinochloa crus-galli, 504 h, 80 g/ha. In outline:
as §1

Assay [13] relates to AMARE. Description: Pre-emergence herbicidal action against AMARE. The settings on record: Amaranthus retroflexus, 504 h, scored visually after 3 weeks vs untreated controls, 100% = plants have died, 0% = like control plants. It is filed as in vivo, Amaranthus retroflexus. In a few lines:
as §1

For assay [14], the system named is VIOTR. Nature of the assay: Pre-emergence herbicidal action against VIOTR. The assay is classed as in vivo, Viola tricolor. The settings on record: Viola tricolor, 504 h; for pest or weed control at 20 g/ha: dosage 20 g/ha; for pest or weed control at 80 g/ha: dosage 80 g/ha. In outline:
as §1

Assay [15] deals with AMARE. Nature of the assay: Post-emergence herbicidal action against AMARE. The assay is classed as in vivo, Amaranthus retroflexus. The settings on record: Amaranthus retroflexus, 504 h, 20 g/ha, visual assessment about 3 weeks after treatment, 100% = plants have died, 0% = like control plants. In outline:
as §2

The subject of assay [16] is VERPE. Description: Pre-emergence herbicidal action against VERPE. It is filed as in vivo, Veronica persica. The settings on record: Veronica persica, 504 h. In outline:
as §1

The subject of assay [17] is PHBPU. Nature of the assay: Post-emergence herbicidal action against PHBPU. The assay is classed as in vivo, Pharbitis purpurea. The settings on record: Ipomoea purpurea, 504 h. In outline:
as §2

With `CCn1nnnc1NC(=O)c1ccc(Br)c(C(=O)NC2CC2)c1Br` [Example 2-343], the pest or weed control at 80 g/ha in assay [1] worked out at 100%; in assay [3], 90%; in assay [6], 100%; in assay [7], 90%; in assay [8] it was 100%; in assay [9], 90%. Further, the pest or weed control at 80 g/ha in assay [10] was 100%; in assay [12] it was 90%; in [13] it was 100%; in [14], 100%. Further, the pest or weed control at 20 g/ha in assay [2] was determined as 90%; in [4] it was 90%; in [5] it was 80%; in assay [7] it was 80%; in [8], 80%; in assay [11], 100%. Also, the pest or weed control at 20 g/ha turned out to be 100% in [13], 90% in assay [14] and 100% in assay [15]. The pest or weed control at 5 g/ha in [4] came to 90%; in assay [11], 80%.
In the case of `CCNC(=O)c1c(Br)ccc(C(=O)Nc2nnnn2CC)c1Br` [Example 2-342], the pest or weed control at 80 g/ha in [1] came out at 100%; in [3], 80%; in assay [16] (dosage 80 g/ha), 80%; in assay [6], 100%; in assay [7] it was 100%; in [8], 100%. Also, the pest or weed control at 80 g/ha turned out to be 80% in assay [9]; 90% in [10]; 80% in assay [12]; 100% in assay [13]; 100% in assay [14]. Further, the pest or weed control at 20 g/ha worked out at 100% in assay [1] (dosage 20 g/ha, scored visually after 3 weeks vs untreated controls, 100% = plants have died, 0% = like control plants, read-out: Pre-emergence action against ABUTH (herbicidal activity in percent)); 80% in assay [2]; 90% in [4]; 80% in assay [16] (dosage 20 g/ha); 90% in assay [17] (dosage 20 g/ha); 90% in assay [5]. For the same compound, the pest or weed control at 20 g/ha was 90% in assay [7]; 90% in assay [8]; 90% in assay [11]; 90% in assay [13]; 90% in [14]; 100% in assay [15]. For the same compound, the pest or weed control at 5 g/ha is 90% in assay [4], 80% in [17] (dosage 5 g/ha), 80% in assay [5] (dosage 5 g/ha) and 90% in assay [11].
